Measurements: ChEMBL document CHEMBL1130484, “Tricyclic -lactams: Total synthesis and antibacterial activity of 5-methoxyethyl and 5-hydroxyethyl trinems” (1997)
≈ marks a conversion by molar mass, not a printed value.

Assays:
Assay type in all cases: functional
Staphylococcus aureus [1] = experiment: In vitro antibacterial activity of compound against Staphylococcus aureus 11311 MET-R
Staphylococcus aureus [2] = experiment: In vitro antibacterial activity of compound against Staphylococcus aureus 663 PEN-S
Staphylococcus aureus [3] = experiment: In vitro antibacterial activity of compound against Staphylococcus aureus 853E PEN-R
Escherichia coli [4] = experiment: In vitro antibacterial activity of compound against Escherichia coli 1919E PM/TEM-1 was determined
Enterococcus faecalis = experiment: In vitro antibacterial activity of compound against Enterococcus faecalis 850
Pseudomonas aeruginosa [5] = experiment: In vitro antibacterial activity of compound against Pseudomonas aeruginosa 2032E WT was determined
Proteus mirabilis = experiment: In vitro antibacterial activity of compound against Proteus mirabilis 3558 was determined
Streptococcus pneumoniae = experiment: In vitro antibacterial activity of compound against Streptococcus pneumoniae 3512 was determined
Haemophilus influenzae = experiment: In vitro antibacterial activity of compound against Haemophilus influenzae ATCC 49247 was determined
Clostridium perfringens = experiment: In vitro antibacterial activity of compound against Clostridium perfringens 615E was determined
Escherichia coli [6] = experiment: In vitro antibacterial activity of compound against Escherichia coli 1852E PM was determined
Klebsiella pneumoniae = experiment: In vitro antibacterial activity of compound against Klebsiella pneumoniae 3226 was determined
Enterobacter cloacae = experiment: In vitro antibacterial activity of compound against Enterobacter cloacae 3647 was determined
Escherichia coli [7] = experiment: In vitro antibacterial activity of compound against Escherichia coli 1850E WT was determined
Escherichia coli [8] = experiment: In vitro antibacterial activity of compound against Escherichia coli 851E was determined
Pseudomonas aeruginosa [9] = experiment: In vitro antibacterial activity of compound against Pseudomonas aeruginosa 2033E PER
Pseudomonas aeruginosa [10] = experiment: In vitro antibacterial activity of compound against Pseudomonas aeruginosa 1911E was determined
Bacteroides fragilis = experiment: In vitro antibacterial activity of compound against Bacteroides fragilis 2017E was determined

SMILES	MIC (Staphylococcus aureus [1])	MIC (Staphylococcus aureus [2])	MIC (Staphylococcus aureus [3])	MIC (Escherichia coli [4])	MIC (Enterococcus faecalis)	MIC (Pseudomonas aeruginosa [5])	MIC (Proteus mirabilis)	MIC (Streptococcus pneumoniae)	MIC (Haemophilus influenzae)	MIC (Clostridium perfringens)	MIC (Escherichia coli [6])	MIC (Klebsiella pneumoniae)	MIC (Enterobacter cloacae)	MIC (Escherichia coli [7])	MIC (Escherichia coli [8])	MIC (Pseudomonas aeruginosa [9])	MIC (Pseudomonas aeruginosa [10])	MIC (Bacteroides fragilis)
COCC[C@H]1CC[C@H]2C(=C(C(=O)O)N3C(=O)[C@H]([C@@H](C)O)[C@@H]23)C1	> 32 µg/mL	0.5 µg/mL (≈ 1.62 µM)	1 µg/mL (≈ 3.23 µM)	2 µg/mL (≈ 6.46 µM)	8 µg/mL (≈ 25.9 µM)	> 32 µg/mL	8 µg/mL (≈ 25.9 µM)	0.12 µg/mL (≈ 0.388 µM)	4 µg/mL (≈ 12.9 µM)	2 µg/mL (≈ 6.46 µM)	1 µg/mL (≈ 3.23 µM)	4 µg/mL (≈ 12.9 µM)	32 µg/mL (≈ 103 µM)	8 µg/mL (≈ 25.9 µM)	8 µg/mL (≈ 25.9 µM)	16 µg/mL (≈ 51.7 µM)	> 32 µg/mL	16 µg/mL (≈ 51.7 µM)
CO[C@H]1CC[C@H]2C(=C(C(=O)O)N3C(=O)[C@H]([C@@H](C)O)[C@@H]23)C1	> 32 µg/mL	0.5 µg/mL (≈ 1.78 µM)	1 µg/mL (≈ 3.55 µM)	2 µg/mL (≈ 7.11 µM)	8 µg/mL (≈ 28.4 µM)	> 32 µg/mL	8 µg/mL (≈ 28.4 µM)	0.12 µg/mL (≈ 0.427 µM)	4 µg/mL (≈ 14.2 µM)	2 µg/mL (≈ 7.11 µM)	1 µg/mL (≈ 3.55 µM)	4 µg/mL (≈ 14.2 µM)	32 µg/mL (≈ 114 µM)	8 µg/mL (≈ 28.4 µM)	8 µg/mL (≈ 28.4 µM)	16 µg/mL (≈ 56.9 µM)	> 32 µg/mL	16 µg/mL (≈ 56.9 µM)
C[C@@H](O)[C@H]1C(=O)N2C(C(=O)O)=C3C[C@@H](CCO)CC[C@@H]3[C@H]12	> 32 µg/mL	0.25 µg/mL (≈ 0.846 µM)	0.5 µg/mL (≈ 1.69 µM)	2 µg/mL (≈ 6.77 µM)	4 µg/mL (≈ 13.5 µM)	> 32 µg/mL	8 µg/mL (≈ 27.1 µM)	0.25 µg/mL (≈ 0.846 µM)	1 µg/mL (≈ 3.39 µM)	4 µg/mL (≈ 13.5 µM)	2 µg/mL (≈ 6.77 µM)	2 µg/mL (≈ 6.77 µM)	4 µg/mL (≈ 13.5 µM)	2 µg/mL (≈ 6.77 µM)	1 µg/mL (≈ 3.39 µM)	4 µg/mL (≈ 13.5 µM)	> 32 µg/mL	16 µg/mL (≈ 54.2 µM)
C[C@@H](O)[C@H]1C(=O)N2C(C(=O)O)=C(SCCNC=N)C[C@H]12 [IMIPENEM ANHYDROUS]	> 32 µg/mL	0.06 µg/mL (≈ 0.2 µM)	0.06 µg/mL (≈ 0.2 µM)	0.5 µg/mL (≈ 1.67 µM)	4 µg/mL (≈ 13.4 µM)	4 µg/mL (≈ 13.4 µM)	8 µg/mL (≈ 26.7 µM)	< 0.01 µg/mL	1 µg/mL (≈ 3.34 µM)	0.2 µg/mL (≈ 0.668 µM)	0.5 µg/mL (≈ 1.67 µM)	0.5 µg/mL (≈ 1.67 µM)	2 µg/mL (≈ 6.68 µM)	0.5 µg/mL (≈ 1.67 µM)	0.5 µg/mL (≈ 1.67 µM)	0.2 µg/mL (≈ 0.668 µM)	4 µg/mL (≈ 13.4 µM)	0.2 µg/mL (≈ 0.668 µM)
CO[C@H]1CCC[C@H]2C1=C(C(=O)[O-])N1C(=O)[C@H]([C@@H](C)O)[C@@H]21.[Na+] [SANFETRINEM SODIUM]	–	–	0.2 µg/mL	0.5 µg/mL	1 µg/mL	–	–	0.01 µg/mL	–	0.03 µg/mL	–	–	–	0.5 µg/mL	–	–	> 32 µg/mL	0.06 µg/mL
